From paper PMC7000209, “Novel small molecule modulators of quorum sensing in avian pathogenic Escherichia coli (APEC)” (Virulence, 2018)

What was measured:
[1] = tested on: QS-regulated and virulence factors genes of APEC O78; test: qRT-PCR of QS-regulated and virulence factor genes; type: cell-based, avian pathogenic E. coli (APEC) O78; details: APEC O78, 100 µM, 10 h, ∆∆Ct vs DMSO
Description: The effect of the selected AI-2 inhibitors on the expression of QS-regulated and virulence factors genes of APEC was determined using qRT-PCR. APEC O78 was grown in the presence of 100 µM of each compound in a 96-well plate at 37 °C for 10 h. APEC O78 culture treated with 1µL of 100% DMSO was used as control. Total RNA was extracted from duplicate wells for each compound (200 µL) using a miRNeasy Mini Kit (Qiagen). RNA quality and quantity was determined by nanodrop 2000 C spectrophotometer (Thermo scientific). Traces of DNA were removed using Genomic DNA removal mix (Qiagen). Approximately, 5 μg of purified RNA was used to synthesize cDNA using the Qiagen RT^2 First Strand Kit (Qiagen). The qRT-PCR was performed using SensiMix^TM SYBR® Hi-ROX qPCR Master Mix (Bioline) according to manufacturer instructions in a realplex^2 mastercycler (Eppendorf) with 55 °C annealing temperature. Gene-specific primers were designed using PrimerQuest Tool and obtained from integrated DNA technologies (IDT). The data were normalized to the house-keeping gene, glyceraldehyde-3-phosphate dehydrogenase (GAPDH). The relative fold change was calculated using the ∆∆Ct method. Three independent experiments were conducted.

[2] = tested on: APEC O2 in HD-11 cells; test: Intracellular survival assay, APEC O2 in HD-11 cells; type: cell-based, avian pathogenic E. coli (APEC) O2; details: MOI 100, 100 µM, 6 h; for reduction of intracellular survival of APEC O2: vs DMSO treated control
Description: The effect of the selected AI-2 inhibitors on the survival of APEC in macrophage cells was tested as described before. Briefly, HD-11 cells was grown as described above and infected with 1 × 10^7 CFU (MOI = 100) of mid-log phase APEC strains (O78, O1 and O2) at 37 °C for 1 h. Cells were washed with PBS and treated with gentamicin (150 μg/mL) for 1 h to kill the extracellular bacteria. The cells were then washed and incubated with 100 µM of each compound in media containing 10 μg/mL of gentamicin at 37 °C for 6 h. Following treatment, cells were washed, lysed with 0.1% Triton X-100 for 5 min, ten-fold serially diluted in PBS and plated on LB agar plates to determine CFUs. Cells treated with chloramphenicol (40 μg/mL) and 1 μL of 100% DMSO were used as controls. The experiment was conducted two times with four replicates in each experiment. Intracellular survival was expressed as the log change of APEC CFUs in the AI-2 inhibitors treated cells.

[3] = tested on: AI-2 activity of O115; test: AI-2 bioluminescence indicator assay, APEC O115; type: cell-based, avian pathogenic E. coli (APEC) O115; details: Escherichia coli, read-out: % Inhibtion of AI-2 activity, serotype O115, bioluminescence vs DMSO treated control
Description: (§1) Overnight culture of APEC O78 prepared in LB broth was adjusted to an optical density (OD600) of 0.05 (7 × 10^7 CFU/mL) in fresh LB broth. One hundred micro-liters of the culture was transferred to a 96-well plate and 1µL (100 μM final concentration) of the compound was added to each well using a pin tool. Chloramphenicol (40 μg/mL) or kanamycin (30 μg/mL) and 1μL of 100% DMSO were included as controls in each plate. Plates were incubated at 37 °C for 10 h with shaking in a Sunrise^TM Tecan plate reader (Tecan Group Ltd. San Jose, CA, USA) and the growth was kinetically monitored every 30 min by measuring the OD at 600 nm.
(§2) The AI-2 bioluminescence assay was performed as described previously. Briefly, APEC O78 cultures grown in the presence of SMs (see above) were centrifuged at 5000 × g for 10 min, and cell-free culture supernatants were prepared by using a 0.22 µm filter 96 well plate (Millipore). The bioluminescence reporter V. harveyi BB170 (AI-1^+ and AI-2^-) was grown overnight in AB medium at 30 °C aerobically with shaking. The overnight culture was diluted to 1:5000 in fresh AB medium and incubated at 30 °C for 3 h. Following incubation, 180 μL of the V. harveyi BB170 culture was distributed into each well of a 96-well plate and mixed with 20 µL of the cell free culture supernatant, the plate was then incubated at 30 °C for 2.5 h in the dark and the bioluminescence was measured using in vivo imaging system (IVIS Lumina Series III, PerkinElmer, USA). […] Cell-free culture supernatants collected from overnight cultures of V. harveyi BB120 (AI-1^+andAI-2^+) and E. coli DH5α (a strain lacks AI-2) were used as controls. Bioluminescence of SMs treated culture supernatants were compared to DMSO treated control. The Z-score was calculated to evaluate the quality of the bioluminescence screening. Four independent experiments were conducted for the 69 compounds that inhibited ≥ 75% of the AI-2 mediated bioluminescence and the average inhibition percentage was calculated.
(§3) The selected compounds were also tested for inhibition of AI-2 production in other APEC serotypes such as O1, O2, O8, O15, O18, O35, O109, and O115 that are commonly implicated in colibacillosis using the same procedure described above.

[4] = tested on: AI-2 activity of O35; test: AI-2 bioluminescence indicator assay, APEC O35; type: cell-based, avian pathogenic E. coli (APEC) O35; details: Escherichia coli, read-out: % Inhibtion of AI-2 activity, serotype O35, bioluminescence vs DMSO treated control
Description: as §1, §2, §3

[5] = tested on: AI-2 activity of O109; test: AI-2 bioluminescence indicator assay, APEC O109; type: cell-based, avian pathogenic E. coli (APEC) O109; details: Escherichia coli, read-out: % Inhibtion of AI-2 activity, serotype O109, bioluminescence vs DMSO treated control
Description: as §1, §2, §3

[6] = tested on: APEC O78 biofilm formation; test: Biofilm assay (crystal violet); type: cell-based, avian pathogenic E. coli (APEC) O78; details: 48 h; for inhibition at 100 µM: Escherichia coli, crystal violet OD550 vs DMSO control, read-out: reduction of APEC O78 biofilm formation
Description: Effect of the selected AI-2 inhibitors on biofilm formation was assessed using the crystal violet (CV) assay. Briefly, APEC O78 was grown in LB broth in the presence of 100 µM of each compound in a 96-well plate at 37 °C for 10 h. The culture was then diluted 1:100 in fresh LB broth. The biofilm assay was performed in a 96-well plate containing 150 µL of the diluted culture and 100 µM of each compound. The plate was then incubated aerobically without shaking at 37 °C for 48 h, washed twice with PBS to remove the non-adherent cells and stained with 200 µL of 0.1% CV in water at room temperature for 10 min. The plate was washed with PBS and biofilm was quantified by measuring the absorbance at 550 nm after solubilizing the CV in 200 μL of 30% acetic acid in water for 15 min.

[7] = tested on: AI-2 activity of APEC O2; test: AI-2 bioluminescence indicator assay, APEC O2; type: cell-based, avian pathogenic E. coli (APEC) O2; details: Escherichia coli, read-out: % Inhibtion of AI-2 activity
Description: as §1, §2, §3

Row | SMILES | expression of cheW [1] | expression of csrA [1] | expression of iss [1] | expression of murD [1] | expression of ugpC [1] | clearance of intracellular APEC O2 [2] [%] | reduction of intracellular survival of APEC O2 [2] | inhibition at 100 µM [3] [%] | inhibition at 100 µM [4] [%] | inhibition at 100 µM [5] [%] | inhibition at 100 µM [6] [%] | inhibition at 100 µM [7] [%] | expression of fliP [1] | expression of fpr [1] | expression of hha [1] | also measured
1 | Fc1ccc(CN2CCCN(Cc3nc(-c4ccc(C(F)(F)F)cc4)no3)CC2)cc1 [C9, 1-(4-fluorobenzyl)-4-({3-[4-(trifluoromethyl)phenyl]-1,2,4-oxadiazol-5-yl}methyl)-1,4-diazepane] | down-regulated | down-regulated | up-regulated | down-regulated | down-regulated | 100 | ~ 3.3 logs | 44 | 36 | 66 | 52 to 58 | 51 |  |  |  | expression of bolA [1]: down-regulated; expression of nlpC [1]: up-regulated
2 | CS/C(N)=N/N=C/c1cc(C)ccc1O [C4, methyl N'-(2-hydroxy-5-methylbenzylidene)h ydrazonothiocarbamate] | down-regulated | down-regulated |  |  |  |  | up to 0.8 logs | 58 | 60 | 67 | 63 to 66 | 76 |  |  |  | expression of iucD [1]: down-regulated; expression of luxS [1]: did not; expression of pfs [1]: up-regulated
3 | OCCC1CN(C2CCN(c3ccccc3)CC2)CCN1CCCc1ccccc1 (centres unmarked) [C10, 2-[4-(1-phenyl-4-piperidinyl)-1-(3-phenylpropyl)-2-piperazinyl]ethanol] |  |  | down-regulated |  |  | 100 | ~ 3.3 logs | ≥ 75 | 47 | 57 | 52 to 58 | 89 | down-regulated |  |  | expression of frwC [1]: down-regulated
4 | O=[N+]([O-])c1cccc(S(=O)(=O)Nc2ccc(Br)cc2)c1 [C6, N-(4-bromophenyl)-3-nit robenzenesulfonamide] | down-regulated | down-regulated |  | down-regulated |  | 100 | ~ 3.3 logs |  |  | 60 | 63 to 66 | 93 | down-regulated | down-regulated | down-regulated | 
5 | Cc1ccc(CN2CCN(CCCc3ccccc3)CC2)cc1 [C5, 1-(4-methylbenzyl)-4-(3-phenylpropyl)piperazine] |  |  |  |  |  | 100 | ~ 3.3 logs | 63 | 68 | 69 | 63 to 66 | 89 | down-regulated | down-regulated | down-regulated | expression of wzb [1]: down-regulated
6 | Cc1ccccc1N1CCN(C2CCCN(C(=O)c3ccc(F)c(Cl)c3)C2)CC1 (centres unmarked) [C2, 1-[1-(3-chloro-4-fluorobenzoyl)-3-piperidinyl]-4-(2-methylphenyl)piperazine] |  |  |  |  | down-regulated |  |  | 52 | 55 | 57 | 52 to 58 | 96 |  |  | down-regulated | 
7 | NC(=O)c1ccccc1Nc1cccc(C(F)(F)F)c1 [C3, 2-{[3-(trifluoromethyl)phenyl]amino}benzamide] |  |  |  |  |  |  |  | 35 | 37 | 0 | 63 to 66 | 54 |  | down-regulated |  | 
8 | COCCN1CCC(CN(Cc2ccncc2)Cc2ccccc2Cl)CC1 [C1, (2-chlorobenzyl){[1-(2-methoxyethyl)-4-piperidinyl]methyl}(4-pyridinylmethyl)amine] |  |  | down-regulated | down-regulated | down-regulated |  |  | 64 | 48 | 65 |  | 94 |  |  | down-regulated | expression of thiH [1]: down-regulated; effect on APEC O78 biofilm formation (in words) ([6]; 100 µM, vs DMSO treated control): no effect
9 | CCc1ccccc1Nc1nc(-c2c(C)nc3ccccn23)cs1 [C8, N-(2-ethylphenyl)-4-(2-methylimidazo[1,2-a]pyridin-3-yl)-1,3-thiazol-2-amine] |  |  |  |  | down-regulated |  | up to 0.8 logs | 44 | 57 | ≥ 75 | 52 to 58 | 94 | down-regulated |  |  | 
10 | O=C(CCN1CCN(c2ccccc2F)CC1)Nc1ccc(Br)cc1 [C7, N-(4-bromophenyl)-3-[4-(2-fluorophenyl)-1-piperazinyl]propanamide] |  |  |  |  |  |  | up to 0.8 logs | 45 | 62 | 67 | 63 to 66 | 83 |  |  |  | expression of nlpC [1]: up-regulated
